Assay results as given in ChEMBL document CHEMBL1201862, “PubChem BioAssay data set” (2004).
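Results reflect a 48-hour exposure of cells in 96-well plates to compound at five concentrations. GI50: concentration for 50% inhibition of growth.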 Active and inactive are the calls of the source. Cut-off read from the data, not from the text of the source: active = GI50 up to about 1.1 µM and inactive = higher.

Key:
Test in all cases: growth of human tumour cells (NCI), 48 h
[1] = system: RPMI-8226
[2] = system: MDA-N
[3] = system: HOP-62
[4] = system: DU-145
[5] = system: COLO 205
[6] = system: OVCAR-8
[7] = system: NCI-H522
[8] = system: 786-0
[9] = system: OVCAR-4
[10] = system: NCI-H23
[11] = system: T47D
[12] = system: LOX IMVI
[13] = system: SK-MEL-28
[14] = system: MDA-MB-435
[15] = system: SR
[16] = system: MCF7
[17] = system: A549
[18] = system: Malme-3M
[19] = system: UO-31
[20] = system: U-251

`Nc1c(S(=O)(=O)O)cc(S(=O)(=O)O)c2ccc(/N=N/c3ccccc3)c(O)c12` was tested. Which GI50 [1] did it give?
Its GI50 is > 100 µM (inactive).

And the GI50 [2]?
The GI50 was > 100 µM (inactive).

What about the GI50 [3] of the same compound?
The GI50 was > 100 µM (inactive).

What about the GI50 [4] of the same compound?
Its GI50 is > 100 µM (inactive).

What about the GI50 [5] of the same compound?
Its GI50 is > 100 µM (inactive).

And the GI50 [6]?
Its GI50 is > 100 µM (inactive).

What about the GI50 [7] of the same compound?
Its GI50 is > 100 µM (inactive).

And the GI50 [8]?
Its GI50 is > 100 µM (inactive).

What about the GI50 [9] of the same compound?
Its GI50 is > 100 µM (inactive).

And the GI50 [10]?
Its GI50 is > 100 µM (inactive).

What about the GI50 [11] of the same compound?
Its GI50 is > 100 µM (inactive).

And the GI50 [12]?
The GI50 was > 100 µM (inactive).

And the GI50 [13]?
Its GI50 is > 100 µM (inactive).

And the GI50 [14]?
Its GI50 is > 100 µM (inactive).

And the GI50 [15]?
Its GI50 is > 100 µM (inactive).

What about the GI50 [16] of the same compound?
Its GI50 is > 100 µM (inactive).

What about the GI50 [17] of the same compound?
Its GI50 is > 100 µM (inactive).

What about the GI50 [18] of the same compound?
Its GI50 is > 100 µM (inactive).

And the GI50 [19]?
Its GI50 is > 100 µM (inactive).

And the GI50 [20]?
Its GI50 is > 100 µM (inactive).

Which results are given for `COC(=O)C12CCC(C(=O)OC)(Cc3c(c4ccccc4n3S(=O)(=O)c3ccccc3)C1)C2=O` (stereo not given)?
GI50 [1]: > 100 µM (inactive); GI50 [2]: > 100 µM (inactive); GI50 [3]: > 100 µM (inactive); GI50 [4]: > 100 µM (inactive); GI50 [5]: > 100 µM (inactive); GI50 [6]: > 92.7 µM (inactive); GI50 [7]: 20 µM (inactive); GI50 [8]: > 42.1 µM (inactive); GI50 [9]: > 61.7 µM (inactive); GI50 [10]: > 100 µM (inactive); GI50 [11]: > 100 µM (inactive); GI50 [12]: > 59.3 µM (inactive); GI50 [13]: > 100 µM (inactive); GI50 [14]: > 100 µM (inactive); GI50 [15]: > 100 µM (inactive); GI50 [16]: 63.8 µM (inactive); GI50 [17]: > 46 µM (inactive); GI50 [18]: 36.1 µM (inactive); GI50 [19]: > 100 µM (inactive); GI50 [20]: > 100 µM (inactive)

What does the source list for `CC(C)[Si]1(C(C)C)OCC2OC(n3ccc(=O)[nH]c3=O)C([Se]c3ccccc3)C2O[Si](C(C)C)(C(C)C)O1` (stereo not given)?
GI50 [1]: 2.95 µM (inactive); GI50 [2]: 3.4 µM (inactive); GI50 [3]: 12.3 µM (inactive); GI50 [4]: 12.2 µM (inactive); GI50 [5]: 4.86 µM (inactive); GI50 [6]: 3.4 µM (inactive); GI50 [7]: 2.1 µM (inactive); GI50 [8]: 3.83 µM (inactive); GI50 [9]: 2.88 µM (inactive); GI50 [10]: 3.57 µM (inactive); GI50 [11]: 6.71 µM (inactive); GI50 [12]: 0.769 µM (active); GI50 [13]: 3.59 µM (inactive); GI50 [14]: 5.42 µM (inactive); GI50 [15]: 3.72 µM (inactive); GI50 [16]: 2.75 µM (inactive); GI50 [17]: 9.46 µM (inactive); GI50 [18]: 2.81 µM (inactive); GI50 [19]: 8.77 µM (inactive); GI50 [20]: 2.07 µM (inactive)

What does the source list for `Cc1ccc(-c2cn3c(nc4ccccc43)c(C)n2)cc1`?
GI50 [1]: 30.7 µM (inactive); GI50 [2]: 54.1 µM (inactive); GI50 [3]: 30.8 µM (inactive); GI50 [4]: 46.5 µM (inactive); GI50 [5]: 49.9 µM (inactive); GI50 [6]: 36 µM (inactive); GI50 [7]: 31.2 µM (inactive); GI50 [8]: 25.8 µM (inactive); GI50 [9]: 59 µM (inactive); GI50 [10]: 22.6 µM (inactive); GI50 [11]: 4.2 µM (inactive); GI50 [12]: 71.6 µM (inactive); GI50 [13]: 58.2 µM (inactive); GI50 [14]: 16 µM (inactive); GI50 [15]: 21.5 µM (inactive); GI50 [16]: 0.578 µM (active); GI50 [17]: 55.1 µM (inactive); GI50 [18]: 37.6 µM (inactive); GI50 [19]: 2.71 µM (inactive); GI50 [20]: 32.4 µM (inactive)

For `C/C(=N\O)c1cccc[n+]1Cc1ccccc1`, which GI50 [1] is on record?
The GI50 was > 100 µM (inactive).

What about the GI50 [2] of the same compound?
The GI50 was > 100 µM (inactive).

And the GI50 [3]?
The GI50 was > 100 µM (inactive).

What about the GI50 [4] of the same compound?
Its GI50 is > 100 µM (inactive).

What about the GI50 [5] of the same compound?
The GI50 was > 100 µM (inactive).

And the GI50 [6]?
The GI50 was > 100 µM (inactive).

What about the GI50 [7] of the same compound?
The GI50 was > 100 µM (inactive).

What about the GI50 [8] of the same compound?
The GI50 was > 100 µM (inactive).

What about the GI50 [9] of the same compound?
Its GI50 is > 100 µM (inactive).

And the GI50 [10]?
The GI50 was > 100 µM (inactive).

And the GI50 [11]?
The GI50 was > 100 µM (inactive).

What about the GI50 [12] of the same compound?
Its GI50 is > 100 µM (inactive).

What about the GI50 [13] of the same compound?
The GI50 was > 100 µM (inactive).

What about the GI50 [14] of the same compound?
The GI50 was > 100 µM (inactive).

And the GI50 [15]?
The GI50 was > 100 µM (inactive).

And the GI50 [16]?
The GI50 was > 100 µM (inactive).

And the GI50 [17]?
Its GI50 is > 100 µM (inactive).

And the GI50 [18]?
Its GI50 is > 100 µM (inactive).

What about the GI50 [19] of the same compound?
The GI50 was > 100 µM (inactive).

What about the GI50 [20] of the same compound?
Its GI50 is > 100 µM (inactive).

Which GI50 [1] does the source give for `CCCCc1c2c(nc3c1CCC/C3=C\c1ccccc1)C(=O)C(CN(C)C)CC2` (stereo not given) here?
Its GI50 is 4.17 µM (inactive).

And the GI50 [2]?
The GI50 was 7.28 µM (inactive).

And the GI50 [3]?
Its GI50 is 16.5 µM (inactive).

What about the GI50 [4] of the same compound?
The GI50 was 15.6 µM (inactive).

What about the GI50 [5] of the same compound?
Its GI50 is 19.1 µM (inactive).

And the GI50 [6]?
Its GI50 is 20.8 µM (inactive).

What about the GI50 [7] of the same compound?
The GI50 was 13.8 µM (inactive).

And the GI50 [8]?
Its GI50 is 10 µM (inactive).

What about the GI50 [9] of the same compound?
Its GI50 is 14.3 µM (inactive).

What about the GI50 [10] of the same compound?
The GI50 was 16.5 µM (inactive).

And the GI50 [11]?
Its GI50 is 3.61 µM (inactive).

And the GI50 [12]?
Its GI50 is 16.2 µM (inactive).

And the GI50 [13]?
The GI50 was 14.8 µM (inactive).

And the GI50 [14]?
The GI50 was 17.2 µM (inactive).

What about the GI50 [15] of the same compound?
The GI50 was 2.76 µM (inactive).

And the GI50 [16]?
Its GI50 is 3.37 µM (inactive).

And the GI50 [17]?
The GI50 was 19.9 µM (inactive).

What about the GI50 [18] of the same compound?
The GI50 was 22.1 µM (inactive).

And the GI50 [19]?
Its GI50 is 18.9 µM (inactive).

What about the GI50 [20] of the same compound?
Its GI50 is 16.6 µM (inactive).

`CS(=O)(=O)Nc1ccc2c(c1)oc(=O)c1ccccc12` was tested. Which GI50 [1] did it give?
Its GI50 is > 100 µM (inactive).

And the GI50 [2]?
The GI50 was > 100 µM (inactive).

What about the GI50 [3] of the same compound?
The GI50 was > 100 µM (inactive).

What about the GI50 [4] of the same compound?
The GI50 was > 100 µM (inactive).

And the GI50 [5]?
Its GI50 is > 100 µM (inactive).

And the GI50 [6]?
The GI50 was > 100 µM (inactive).

And the GI50 [7]?
The GI50 was > 100 µM (inactive).

And the GI50 [8]?
Its GI50 is > 100 µM (inactive).

And the GI50 [9]?
Its GI50 is > 100 µM (inactive).

And the GI50 [10]?
The GI50 was > 100 µM (inactive).

And the GI50 [11]?
Its GI50 is > 100 µM (inactive).

What about the GI50 [12] of the same compound?
Its GI50 is > 100 µM (inactive).

What about the GI50 [13] of the same compound?
Its GI50 is > 100 µM (inactive).

And the GI50 [14]?
Its GI50 is > 100 µM (inactive).

And the GI50 [15]?
The GI50 was > 100 µM (inactive).

What about the GI50 [16] of the same compound?
Its GI50 is > 100 µM (inactive).

And the GI50 [17]?
Its GI50 is > 100 µM (inactive).

What about the GI50 [18] of the same compound?
The GI50 was > 100 µM (inactive).

What about the GI50 [19] of the same compound?
Its GI50 is 38.5 µM (inactive).

And the GI50 [20]?
The GI50 was > 100 µM (inactive).
